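How tested: cells in 96-well plates exposed to compound for 48 hours at five concentrations. Here, GI50 denotes the concentration required for 50% inhibition of growth.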 Calls of active or inactive are those of the source. No stated cut-off is given here; in the data, active = GI50 up to about 1.1 µM and inactive = higher.
How the values were obtained:
Assay in all cases: growth of human tumour cells (NCI), 48 h
[1] = system: SNB-75
[2] = system: NCI-H522
[3] = system: SK-OV-3
[4] = system: HOP-92
[5] = system: ACHN
[6] = system: BT-549
[7] = system: Hs-578T
[8] = system: M14
[9] = system: PC-3
[10] = system: SNB-19
[11] = system: SW-620
[12] = system: U-251
[13] = system: K562
[14] = system: LOX IMVI
[15] = system: MOLT-4
[16] = system: SF-268
[17] = system: MCF7
[18] = system: SK-MEL-5
[19] = system: 786-0
[20] = system: A498

With `CCOC(=O)/C=C(/C(=O)OCC)n1ccc(=O)[nH]c1=O` the GI50 [1] was 14 µM (inactive), the GI50 [2] was 0.726 µM (active) and the GI50 [3] was 18.7 µM (inactive). The GI50 [4] was 2.07 µM (inactive), the GI50 [5] was 3.99 µM (inactive) and the GI50 [6] was 12.2 µM (inactive). The GI50 [7] was 17.9 µM (inactive), the GI50 [8] was 3.83 µM (inactive) and the GI50 [9] was 13.8 µM (inactive). The GI50 [10] was 15.4 µM (inactive), the GI50 [11] was 1.86 µM (inactive) and the GI50 [12] was 13.5 µM (inactive). For the same compound, the GI50 [13] was 2.23 µM (inactive), the GI50 [14] was 7.48 µM (inactive) and the GI50 [15] was 2.25 µM (inactive). The GI50 [16] was 15.6 µM (inactive), the GI50 [17] was 4.19 µM (inactive) and the GI50 [18] was 15.3 µM (inactive). For the same compound, the GI50 [19] was 3.36 µM (inactive) and the GI50 [20] was 20.6 µM (inactive).
`CCOC(=O)/C1=C(\C)N(c2ccc(C)cc2)C(=O)c2ccccc2C(=O)c2c(OC(C)=O)ccc(OC(C)=O)c21` was tested, and the GI50 [1] was 25.8 µM (inactive), the GI50 [2] was 20.7 µM (inactive) and the GI50 [3] was 17.2 µM (inactive). For the same compound, the GI50 [4] was 29.9 µM (inactive), the GI50 [5] was 16.8 µM (inactive) and the GI50 [6] was 25.3 µM (inactive). For the same compound, the GI50 [7] was 16.6 µM (inactive), the GI50 [8] was 18.4 µM (inactive) and the GI50 [9] was 26.2 µM (inactive). For the same compound, the GI50 [10] was 25.2 µM (inactive), the GI50 [11] was 34.7 µM (inactive) and the GI50 [12] was 24.9 µM (inactive). For the same compound, the GI50 [13] was 16.1 µM (inactive), the GI50 [14] was 14.4 µM (inactive) and the GI50 [15] was 6.27 µM (inactive). The GI50 [16] was 37.5 µM (inactive), the GI50 [17] was 26.1 µM (inactive) and the GI50 [18] was 30 µM (inactive). For the same compound, the GI50 [19] was 34.8 µM (inactive) and the GI50 [20] was 67.1 µM (inactive).
With `O=C1C=C(Cl)C(=O)C(c2ccc(Cl)cc2)=C1` the GI50 [1] was 22.5 µM (inactive), the GI50 [2] was 5.05 µM (inactive) and the GI50 [3] was 47.3 µM (inactive). For the same compound, the GI50 [4] was 19.3 µM (inactive), the GI50 [5] was 16.7 µM (inactive) and the GI50 [6] was 23.8 µM (inactive). The GI50 [7] was 26.5 µM (inactive), the GI50 [8] was 17 µM (inactive) and the GI50 [9] was 15.3 µM (inactive). For the same compound, the GI50 [10] was 89.3 µM (inactive), the GI50 [11] was 25.5 µM (inactive) and the GI50 [12] was 15.2 µM (inactive). For the same compound, the GI50 [13] was 4.19 µM (inactive), the GI50 [14] was 16.1 µM (inactive) and the GI50 [15] was 4.03 µM (inactive). The GI50 [16] was 19.7 µM (inactive), the GI50 [17] was 16.3 µM (inactive) and the GI50 [18] was 16.5 µM (inactive). For the same compound, the GI50 [19] was 22.1 µM (inactive) and the GI50 [20] was 23.8 µM (inactive).
In the case of `CN(CCNC(=O)c1nn(-c2ccc(Cl)cc2Cl)c2c1Cc1ccccc1-2)CCNC(=O)c1nn(-c2ccc(Cl)cc2Cl)c2c1Cc1ccccc1-2`, the GI50 [1] is reported as 5.21 µM (inactive), the GI50 [2] is reported as 1.58 µM (inactive) and the GI50 [3] is reported as 15.7 µM (inactive). The GI50 [4] was 1.99 µM (inactive), the GI50 [5] was 4.53 µM (inactive) and the GI50 [6] was 7.38 µM (inactive). For the same compound, the GI50 [7] was 1.53 µM (inactive), the GI50 [8] was 1.81 µM (inactive) and the GI50 [9] was 5.87 µM (inactive). For the same compound, the GI50 [10] was 3.71 µM (inactive), the GI50 [11] was 1.86 µM (inactive) and the GI50 [12] was 2.49 µM (inactive). The GI50 [13] was 1.57 µM (inactive), the GI50 [14] was 2.07 µM (inactive) and the GI50 [15] was 2.12 µM (inactive). The GI50 [16] was 12.1 µM (inactive), the GI50 [17] was 2.56 µM (inactive) and the GI50 [18] was 1.74 µM (inactive). The GI50 [19] was 2.16 µM (inactive) and the GI50 [20] was 5.14 µM (inactive).
`CN1CCc2c(sc3ncn(N)c(=N)c23)C1` was tested, and the GI50 [1] was > 100 µM (inactive), the GI50 [2] was 45.7 µM (inactive) and the GI50 [3] was > 100 µM (inactive). For the same compound, the GI50 [4] was > 100 µM (inactive), the GI50 [5] was > 100 µM (inactive) and the GI50 [6] was > 100 µM (inactive). The GI50 [7] was > 100 µM (inactive), the GI50 [8] was > 100 µM (inactive) and the GI50 [9] was > 100 µM (inactive). For the same compound, the GI50 [10] was > 100 µM (inactive), the GI50 [11] was > 100 µM (inactive) and the GI50 [12] was > 100 µM (inactive). The GI50 [13] was > 100 µM (inactive), the GI50 [14] was > 100 µM (inactive) and the GI50 [15] was > 100 µM (inactive). For the same compound, the GI50 [16] was > 100 µM (inactive), the GI50 [17] was > 100 µM (inactive) and the GI50 [18] was > 100 µM (inactive). The GI50 [19] was > 100 µM (inactive) and the GI50 [20] was > 100 µM (inactive).

— ChEMBL document CHEMBL1201862, “PubChem BioAssay data set” (2004)
